Here are results for four compounds from the NIST ThermoML archive (doi:10.1021/je500762n).

The conditions of data set [1]: Crystal; DTA.
Data set [2] can be described thus: Molar enthalpy of transition or fusion. The note with it: Crystal; DSC.

Numbers after ± are expanded uncertainties.

With `CCCCCCCC[n+]1csc2ccccc21.F[P-](F)(F)(F)(F)F` [N-octylbenzothiazolium hexafluorophosphate], the Normal melting temperature in data set [1] worked out at 61.07 ± 0.5 °C. Moreover, the “Molar enthalpy of transition or fusion” value in data set [2] came to 3.59 ± 0.12 kcal/mol.

With `CCCCCC[n+]1csc2ccccc21.F[P-](F)(F)(F)(F)F` [N-hexylbenzothiazolium hexafluorophosphate], the Normal melting temperature in data set [1] came to 85.64 ± 0.5 °C. Also, in data set [2], the “Molar enthalpy of transition or fusion” value stood at 5.62 ± 0.167 kcal/mol.

Consider `CCCCCCC[n+]1csc2ccccc21.F[P-](F)(F)(F)(F)F` [3-heptylbenzo[d]thiazol-3-ium hexafluorophosphate], for which the Normal melting temperature in data set [1] was found to be 86.2 ± 0.5 °C. In addition, in data set [2], the “Molar enthalpy of transition or fusion” value was 4.8 ± 0.167 kcal/mol.

Take `CCCCC[n+]1csc2ccccc21.F[P-](F)(F)(F)(F)F` [N-pentylbenzothiazolium hexafluorophosphate]: the Normal melting temperature in data set [1] turned out to be 139.11 ± 0.5 °C. In addition, in data set [2], the “Molar enthalpy of transition or fusion” value is 7.22 ± 0.215 kcal/mol.
